We go through 1 compound from US8815535B2, “Disk diffusion assay for oritavancin” (The Medicines Company, priority 2011, dated 2014).

Converted amounts (≈) assume the structure as drawn.

The experiment deals with S. aureus isolates. The experiment can be described thus: Broth microdilution (BMD) MIC, panel of isolates. It counts as cell-based. As to conditions: Staphylococcus aureus, wild-type susceptibility to oritavancin. An excerpt: To date, only the broth microdilution (BMD) minimal inhibitory concentration (MIC) test is a reference method accepted by the Clinical Laboratory Standards Institute (CLSI) for use in determining the susceptibility of a bacterial isolate to oritavancin (Methods for Dilution Antimicrobial Susceptibility Tests for Bacteria That Grow Aerobically; Approved Standard, CLSI document M7-A8, 8th ed. Clinical and Laboratory Standards Institute, Wayne, Pa. 2009; Performance Standards for Antimicrobial Susceptibility Testing; Eighteenth Informational Supplement, CLSI document M100-S18, 7th ed. Clinical and Laboratory Standards Institute, Wayne, Pa. 2008).
Background: Broth dilution looks for growth in wells or tubes with falling amounts of substance.

On to `CN[C@H](CC(C)C)C(=O)N[C@H]1C(=O)N[C@@H](CC(N)=O)C(=O)N[C@H]2C(=O)N[C@H]3C(=O)N[C@H](C(=O)N[C@H](C(=O)O)c4cc(O)cc(O)c4-c4cc3ccc4O)[C@H](O[C@H]3C[C@](C)(N)[C@@H](O)[C@H](C)O3)c3ccc(c(Cl)c3)Oc3cc2cc(c3O[C@@H]2O[C@H](CO)[C@@H](O)[C@H](O)[C@H]2O[C@H]2C[C@](C)(NCc3ccc(-c4ccc(Cl)cc4)cc3)[C@@H](O)[C@H](C)O2)Oc2ccc(cc2Cl)[C@H]1O` [oritavancin, N-(4-(4-chlorophenyl)benzyl)A82846B], for which the MIC90 worked out at 0.12 µg/mL (≈ 0.0669 µM).

As usually defined, the MIC90 is an inhibitory concentration at the 90% level, which refers to growth in some studies and to a panel of isolates in others. High values mean weaker potency, low ones greater potency.
